Legend:
chytrids = assay: % chytrid infection in flask cultures (Example 6); format: cell-based
Procedure: A series of experiments were conducted to evaluate the effectiveness of hydrogen peroxide alone and in combination with concentrations of salt as a treatment for controlling chytrid infections in Haematococcus pluvialis cultures. […] Bioreactor #2420 had just been inoculated with cells in the green swimmer stage into reddening conditions that comprised of culture medium comprising a 1 ppt concentration of sodium chloride (NaCl). The flask experiment consisted of duplicate untreated controls and duplicate treatments.
The flask cultures contained Haematococcus pluvialis (Strain 1) cells in both the green swimmer stage and early red cyst stage.
The collected samples were inoculated in the green swimmer stage in growth conditions [i.e., in the absence of sodium chloride (NaCl)].
The culture samples were inoculated in the green swimmer stage in growth conditions [i.e., in less than 1 ppt of sodium chloride (NaCl)].
The flask cultures were then diluted 1:3 into reddening media comprising 1 ppt NaCl or 2 ppt NaCl (33.3 mL and 66.6 mL culture media).

[1] = system: Haematococcus pluvialis (Strain 2); assay: % lysis and culture dry weight in flasks (Example 10);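 further: flask cultures run in duplicate, with duplicate untreated flasks serving as controls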
Text: Culture samples of Haematococcus pluvialis (Strain 2) were collected on the second day of the culture from open raceway bioreactor #2430 operating in conditions: reactor volume of 170,000 L; Daily PAR not measured; pH of 7.3; and paddlewheel speed of 70. The culture samples were distributed into flasks for culturing, consisting of duplicate untreated controls and duplicate treatments. […] Samples were taken from the flask cultures daily to quantify % lysis and % chytrid infection and cell dry weight was quantified every other day for a duration of 11 days.

[2] = dosed 0.015 mL/L; carboy and open raceway pond samples

hydrogen peroxide [H2O2]
reduction in % chytrid infection compared to the control (chytrids; 4th experiment, starting 5 days after inoculation (144 h)): 50-90%
Average Chytrid Infection (chytrids; #2210 samples, absence of NaCl, 0.0075 mL/L two times per day, 0 h): 0.0 ± 0.0%
Average Chytrid Infection (chytrids; #2210 samples, absence of NaCl, 0.0075 mL/L two times per day, 24 h): 0.0 ± 0.0%
Average Chytrid Infection (chytrids; #2210 samples, absence of NaCl, 0.0075 mL/L two times per day, 48 h): 0.0 ± 0.0%
Average Chytrid Infection (chytrids; #2210 samples, absence of NaCl, 0.0075 mL/L two times per day, 96 h): 0.0 ± 0.0%
Average Chytrid Infection (chytrids; #2210 samples, absence of NaCl, 0.0075 mL/L two times per day, 120 h): 0.0 ± 0.0%
Average Chytrid Infection (chytrids; #2210 samples, absence of NaCl, 0.0075 mL/L two times per day, 144 h): 4.2 ± 5.9%
Average Chytrid Infection (chytrids; #2210 samples, absence of NaCl, 0.0075 mL/L two times per day, 168 h): 18.3 ± 25.9%
Average Chytrid Infection (chytrids; #2210 samples, absence of NaCl, 0.0075 mL/L two times per day, 192 h): 26.6 ± 37.1%
Average Chytrid Infection (chytrids; #2210 samples, absence of NaCl, 0.0075 mL/L two times per day, 264 h): 51.7 ± 7.1%
Average Chytrid Infection (chytrids; #2310 samples (4th experiment), 1 ppt NaCl, 0.0075 mL/L 3 times per day, 0 h): 0.0 ± 0.0%
Average Chytrid Infection (chytrids; #2310 samples (4th experiment), 1 ppt NaCl, 0.0075 mL/L 3 times per day, 24 h): 0.0 ± 0.0%
Average Chytrid Infection (chytrids; #2310 samples (4th experiment), 1 ppt NaCl, 0.0075 mL/L 3 times per day, 48 h): 0.0 ± 0.0%
Average Chytrid Infection (chytrids; #2310 samples (4th experiment), 1 ppt NaCl, 0.0075 mL/L 3 times per day, 120 h): 1.7 ± 1.7%
Average Chytrid Infection (chytrids; #2310 samples (4th experiment), 1 ppt NaCl, 0.0075 mL/L 3 times per day, 144 h): 18.3 ± 18.5%
Average Chytrid Infection (chytrids; #2310 samples (4th experiment), 1 ppt NaCl, 0.0075 mL/L 3 times per day, 168 h): 17.2 ± 14.4%
Average Chytrid Infection (chytrids; #2310 samples (4th experiment), 1 ppt NaCl, 0.0075 mL/L 3 times per day, 192 h): 32.2 ± 28.1%
Average Chytrid Infection (chytrids; #2310 samples (4th experiment), 1 ppt NaCl, 0.0075 mL/L 3 times per day, 216 h): 44.4 ± 46.8%
Average Chytrid Infection (chytrids; #2420 samples, 1 ppt NaCl, 0.0075 mL/L 2-3 times per day, 0 h): 0.0 ± 0.0%
Average Chytrid Infection (chytrids; #2420 samples, 1 ppt NaCl, 0.0075 mL/L 2-3 times per day, 24 h): 0.0 ± 0.0%
Average Chytrid Infection (chytrids; #2420 samples, 1 ppt NaCl, 0.0075 mL/L 2-3 times per day, 48 h): 0.0 ± 0.0%
Average Chytrid Infection (chytrids; #2420 samples, 1 ppt NaCl, 0.0075 mL/L 2-3 times per day, 72 h): 0.0 ± 0.0%
Average Chytrid Infection (chytrids; #2420 samples, 1 ppt NaCl, 0.0075 mL/L 2-3 times per day, 144 h): 0.0 ± 0.0%
Average Chytrid Infection (chytrids; #2420 samples, 1 ppt NaCl, 0.0075 mL/L 2-3 times per day, 168 h): 0.0 ± 0.0%
Average Chytrid Infection (chytrids; #2420 samples, 1 ppt NaCl, 0.0075 mL/L 2-3 times per day, 197 h): 0.0 ± 0.0%
Average Chytrid Infection (chytrids; #2420 samples, 1 ppt NaCl, 0.0075 mL/L 2-3 times per day, 217 h): 0.0 ± 0.0%
Average Chytrid Infection (chytrids; #2440 samples, 1 ppt salt, 0.0075 mL/L 2-3 times per day, 0 h): 0.0 ± 0.0%
Average Chytrid Infection (chytrids; #2440 samples, 1 ppt salt, 0.0075 mL/L 2-3 times per day, 24 h): 1.7 ± 2.9%
Average Chytrid Infection (chytrids; #2440 samples, 1 ppt salt, 0.0075 mL/L 2-3 times per day, 96 h): 25.0 ± 2.9%
Average Chytrid Infection (chytrids; #2440 samples, 1 ppt salt, 0.0075 mL/L 2-3 times per day, 120 h): 51.7 ± 5.0%
Average Chytrid Infection (chytrids; #2440 samples, 1 ppt salt, 0.0075 mL/L 2-3 times per day, 144 h): 43.9 ± 4.2%
% Lysis ([1]; 0.0105 mL/L 1 time per day for 3 d then every other day, day 0): 0.8 ± 2.0%
% Lysis ([1]; 0.0105 mL/L 1 time per day for 3 d then every other day, day 3): 0.0 ± 0.0%
% Lysis ([1]; 0.0105 mL/L 1 time per day for 3 d then every other day, day 4): 1.7 ± 0.0%
% Lysis ([1]; 0.0105 mL/L 1 time per day for 3 d then every other day, day 5): 1.7 ± 2.4%
% Lysis ([1]; 0.0105 mL/L 1 time per day for 3 d then every other day, day 6): 3.3 ± 4.7%
% Lysis ([1]; 0.0105 mL/L 1 time per day for 3 d then every other day, day 7): 0.0 ± 0.0%
% Lysis ([1]; 0.0105 mL/L 1 time per day for 3 d then every other day, day 8): 0.8 ± 1.2%
% Lysis ([1]; 0.0105 mL/L 1 time per day for 3 d then every other day, day 9): 0.8 ± 1.2%
% Lysis ([1]; 0.0105 mL/L 1 time per day for 3 d then every other day, day 10): 0.8 ± 1.2%
% Lysis ([1]; 0.0105 mL/L 1 time per day, day 0): 0.8 ± 2.0%
% Lysis ([1]; 0.0105 mL/L 1 time per day, day 3): 0.0 ± 0.0%
% Lysis ([1]; 0.0105 mL/L 1 time per day, day 4): 1.7 ± 0.0%
% Lysis ([1]; 0.0105 mL/L 1 time per day, day 5): 1.7 ± 0.0%
% Lysis ([1]; 0.0105 mL/L 1 time per day, day 6): 0.8 ± 2.0%
% Lysis ([1]; 0.0105 mL/L 1 time per day, day 7): 0.0 ± 0.0%
% Lysis ([1]; 0.0105 mL/L 1 time per day, day 8): 1.7 ± 2.4%
% Lysis ([1]; 0.0105 mL/L 1 time per day, day 9): 7.5 ± 8.3%
% Lysis ([1]; 0.0105 mL/L 1 time per day, day 10): 0.0 ± 0.0%
percent lysis ([1]; 0.0105 mL/L, for 11 days): under 10%
% Lysis ([1]; 0.0140 mL/L 1 time per day for 3 d then every other day, day 0): 0.8 ± 2.0%
% Lysis ([1]; 0.0140 mL/L 1 time per day for 3 d then every other day, day 3): 4.2 ± 1.2%
% Lysis ([1]; 0.0140 mL/L 1 time per day for 3 d then every other day, day 4): 10.0 ± 8.7%
% Lysis ([1]; 0.0140 mL/L 1 time per day for 3 d then every other day, day 5): 15.8 ± 5.9%
% Lysis ([1]; 0.0140 mL/L 1 time per day for 3 d then every other day, day 6): 6.7 ± 0.0%
% Lysis ([1]; 0.0140 mL/L 1 time per day for 3 d then every other day, day 7): 13.3 ± 4.7%
% Lysis ([1]; 0.0140 mL/L 1 time per day for 3 d then every other day, day 8): 13.3 ± 2.4%
% Lysis ([1]; 0.0140 mL/L 1 time per day for 3 d then every other day, day 9): 5.0 ± 2.4%
% Lysis ([1]; 0.0140 mL/L 1 time per day for 3 d then every other day, day 10): 15.8 ± 12.9%
% Lysis ([1]; 0.0140 mL/L 1 time per day, day 0): 0.8 ± 2.0%
% Lysis ([1]; 0.0140 mL/L 1 time per day, day 3): 4.2 ± 1.2%
% Lysis ([1]; 0.0140 mL/L 1 time per day, day 4): 10.0 ± 8.7%
% Lysis ([1]; 0.0140 mL/L 1 time per day, day 5): 10.0 ± 2.4%
% Lysis ([1]; 0.0140 mL/L 1 time per day, day 6): 9.2 ± 3.5%
% Lysis ([1]; 0.0140 mL/L 1 time per day, day 7): 20.0 ± 9.4%
% Lysis ([1]; 0.0140 mL/L 1 time per day, day 8): 6.7 ± 7.0%
% Lysis ([1]; 0.0140 mL/L 1 time per day, day 9): 21.7 ± 7.1%
% Lysis ([1]; 0.0140 mL/L 1 time per day, day 10): 9.2 ± 3.5%
percent lysis reached ([1]; 0.0140 mL/L, by day 7): 20%
% Lysis ([1]; 0.0175 mL/L 1 time per day for 2 d then every other, day 0): 0.8 ± 2.0%
% Lysis ([1]; 0.0175 mL/L 1 time per day for 2 d then every other, day 3): 31.7 ± 11.8%
% Lysis ([1]; 0.0175 mL/L 1 time per day for 2 d then every other, day 4): 22.2 ± 8.5%
% Lysis ([1]; 0.0175 mL/L 1 time per day for 2 d then every other, day 5): 19.2 ± 17.6%
% Lysis ([1]; 0.0175 mL/L 1 time per day for 2 d then every other, day 6): 25 ± 0.0%
percent lysis reached ([1]; 0.0175 mL/L, by day 3 after only being dosed twice): 30%
time to concentration below detectable limits [2]: 120 min
time to concentration below level expected to be effective against uniflagellates (calculated concentration 0.0075 mL/L) [2]: 30 min

— patent US20160281050A1, “METHODS FOR TREATING A CULTURE OF HAEMATOCOCCUS PLUVIALIS FOR CONTAMINATION USING SALT AND HYDROGEN PEROXIDE” (HELIAE DEVELOPMENT LLC, priority 2015, published 2016)
